Reference: BigSolDB 2.1

SMILES: CO[C@@]1(NC(=O)CSCC#N)C(=O)N2C(C(=O)[O-])=C(CSc3nnnn3C)CS[C@@H]21.[Na+]
- solubility (mole fraction) (in cyclohexane, 278.15 K): 1.31e-06
- solubility (mole fraction) (in cyclohexane, 283.15 K): 1.75e-06
- solubility (mole fraction) (in cyclohexane, 288.15 K): 2.1e-06
- solubility (mole fraction) (in cyclohexane, 293.15 K): 2.5e-06
- solubility (mole fraction) (in cyclohexane, 298.15 K): 3.1e-06
- solubility (mole fraction) (in cyclohexane, 303.15 K): 3.6e-06
- solubility (mole fraction) (in cyclohexane, 308.15 K): 4.62e-06
- solubility (mole fraction) (in cyclohexane, 313.15 K): 5.69e-06
- solubility (mole fraction) (in ethanol, 278.15 K): 0.000471
- solubility (mole fraction) (in ethanol, 283.15 K): 0.000508
- solubility (mole fraction) (in ethanol, 288.15 K): 0.000542
- solubility (mole fraction) (in ethanol, 293.15 K): 0.000599
- solubility (mole fraction) (in ethanol, 298.15 K): 0.000685
- solubility (mole fraction) (in ethanol, 303.15 K): 0.000818
- solubility (mole fraction) (in ethanol, 308.15 K): 0.00105
- solubility (mole fraction) (in ethanol, 313.15 K): 0.00128
- solubility (mole fraction) (in ethyl acetate, 278.15 K): 5.31e-05
- solubility (mole fraction) (in ethyl acetate, 283.15 K): 6.03e-05
- solubility (mole fraction) (in ethyl acetate, 288.15 K): 6.94e-05
- solubility (mole fraction) (in ethyl acetate, 293.15 K): 8.61e-05
- solubility (mole fraction) (in ethyl acetate, 298.15 K): 0.000105
- solubility (mole fraction) (in ethyl acetate, 303.15 K): 0.000137
- solubility (mole fraction) (in ethyl acetate, 308.15 K): 0.000168
- solubility (mole fraction) (in ethyl acetate, 313.15 K): 0.000221
- solubility (mole fraction) (in isopropanol, 278.15 K): 6.74e-05
- solubility (mole fraction) (in isopropanol, 283.15 K): 7.58e-05
- solubility (mole fraction) (in isopropanol, 288.15 K): 8.93e-05
- solubility (mole fraction) (in isopropanol, 293.15 K): 0.000117
- solubility (mole fraction) (in isopropanol, 298.15 K): 0.00014
- solubility (mole fraction) (in isopropanol, 303.15 K): 0.00017
- solubility (mole fraction) (in isopropanol, 308.15 K): 0.00021
- solubility (mole fraction) (in isopropanol, 313.15 K): 0.000286
- solubility (mole fraction) (in n-butanol, 278.15 K): 4.93e-05
- solubility (mole fraction) (in n-butanol, 283.15 K): 5.69e-05
- solubility (mole fraction) (in n-butanol, 288.15 K): 6.42e-05
- solubility (mole fraction) (in n-butanol, 293.15 K): 8.26e-05
- solubility (mole fraction) (in n-butanol, 298.15 K): 9.89e-05
- solubility (mole fraction) (in n-butanol, 303.15 K): 0.000124
- solubility (mole fraction) (in n-butanol, 308.15 K): 0.000152
- solubility (mole fraction) (in n-butanol, 313.15 K): 0.000196
- solubility (mole fraction) (in n-butyl acetate, 278.15 K): 3.86e-05
- solubility (mole fraction) (in n-butyl acetate, 283.15 K): 4.39e-05
- solubility (mole fraction) (in n-butyl acetate, 288.15 K): 5.19e-05
- solubility (mole fraction) (in n-butyl acetate, 293.15 K): 6.35e-05
- solubility (mole fraction) (in n-butyl acetate, 298.15 K): 7.49e-05
- solubility (mole fraction) (in n-butyl acetate, 303.15 K): 8.96e-05
- solubility (mole fraction) (in n-butyl acetate, 308.15 K): 0.000109
- solubility (mole fraction) (in n-butyl acetate, 313.15 K): 0.000124
- solubility (mole fraction) (in n-hexane, 278.15 K): 1.6e-06
- solubility (mole fraction) (in n-hexane, 283.15 K): 2.1e-06
- solubility (mole fraction) (in n-hexane, 288.15 K): 2.59e-06
- solubility (mole fraction) (in n-hexane, 293.15 K): 2.98e-06
- solubility (mole fraction) (in n-hexane, 298.15 K): 3.5e-06
- solubility (mole fraction) (in n-hexane, 303.15 K): 4.1e-06
- solubility (mole fraction) (in n-hexane, 308.15 K): 4.92e-06
- solubility (mole fraction) (in n-hexane, 313.15 K): 6e-06
- solubility (mole fraction) (in n-pentanol, 278.15 K): 3.1e-05
- solubility (mole fraction) (in n-pentanol, 283.15 K): 3.94e-05
- solubility (mole fraction) (in n-pentanol, 288.15 K): 4.82e-05
- solubility (mole fraction) (in n-pentanol, 293.15 K): 5.84e-05
- solubility (mole fraction) (in n-pentanol, 298.15 K): 6.75e-05
- solubility (mole fraction) (in n-pentanol, 303.15 K): 8e-05
- solubility (mole fraction) (in n-pentanol, 308.15 K): 9.75e-05
- solubility (mole fraction) (in n-pentanol, 313.15 K): 0.000113
- solubility (mole fraction) (in n-propanol, 278.15 K): 6.12e-05
- solubility (mole fraction) (in n-propanol, 283.15 K): 7.02e-05
- solubility (mole fraction) (in n-propanol, 288.15 K): 8.12e-05
- solubility (mole fraction) (in n-propanol, 293.15 K): 0.000105
- solubility (mole fraction) (in n-propanol, 298.15 K): 0.000125
- solubility (mole fraction) (in n-propanol, 303.15 K): 0.000153
- solubility (mole fraction) (in n-propanol, 308.15 K): 0.000191
- solubility (mole fraction) (in n-propanol, 313.15 K): 0.000244
